Results published in ChEMBL document CHEMBL1201862, “PubChem BioAssay data set” (2004).
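Briefly, cells in 96-well plates were exposed to five compound concentrations for 48 h, and endpoints were estimated by linear interpolation. GI50 = concentration required for 50% inhibition of growth.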 Active and inactive are the calls of the source. No stated cut-off is given here; in the data, active = GI50 up to about 1.1 µM and inactive = higher.

What was measured:
Test in all cases: inhibition of tumour cell growth, NCI panel, 48 h
786-0 = test system: 786-0
A498 = test system: A498
A549 = test system: A549
ACHN = test system: ACHN
CAKI-1 = test system: CAKI-1
CCRF-CEM = test system: CCRF-CEM
COLO 205 = test system: COLO 205
DLD-1 = test system: DLD-1
DMS-114 = test system: DMS-114
EKVX = test system: EKVX
HCC 2998 = test system: HCC 2998
HCT-116 = test system: HCT-116
HCT-15 = test system: HCT-15
HL-60 = test system: HL-60
HOP-18 = test system: HOP-18
HOP-62 = test system: HOP-62
HOP-92 = test system: HOP-92
HT-29 = test system: HT-29
IGROV-1 = test system: IGROV-1
K562 = test system: K562
KM-20L2 = test system: KM-20L2
KM12 = test system: KM12
LOX IMVI = test system: LOX IMVI
LXFL 529 = test system: LXFL 529
M14 = test system: M14
M19-MEL = test system: M19-MEL
MOLT-4 = test system: MOLT-4
Malme-3M = test system: Malme-3M
NCI-H226 = test system: NCI-H226
NCI-H23 = test system: NCI-H23
NCI-H460 = test system: NCI-H460
OVCAR-3 = test system: OVCAR-3
OVCAR-4 = test system: OVCAR-4
OVCAR-5 = test system: OVCAR-5
OVCAR-8 = test system: OVCAR-8
RPMI-8226 = test system: RPMI-8226
RXF 393 = test system: RXF 393
RXF 631 = test system: RXF 631
SF-295 = test system: SF-295
SF-539 = test system: SF-539
SK-MEL-2 = test system: SK-MEL-2
SK-MEL-5 = test system: SK-MEL-5
SK-OV-3 = test system: SK-OV-3
SN12C = test system: SN12C
SNB-19 = test system: SNB-19
SNB-75 = test system: SNB-75
SNB-78 = test system: SNB-78
SW-620 = test system: SW-620
TK-10 = test system: TK-10
U-251 = test system: U-251
UACC-257 = test system: UACC-257
UACC-62 = test system: UACC-62
UO-31 = test system: UO-31
XF498 = test system: XF498
DMS-273 = test system: DMS-273
NCI-H522 = test system: NCI-H522
SF-268 = test system: SF-268
SK-MEL-28 = test system: SK-MEL-28

In the case of `CSc1nc(NC2OCC(OC(C)=O)C(OC(C)=O)C2OC(C)=O)c2c(OC(C)=O)c(C)c(=O)oc2n1` (centres undefined), the GI50 (786-0) is reported as > 100 µM (inactive), the GI50 (A498) is reported as > 100 µM (inactive) and the GI50 (A549) is reported as > 100 µM (inactive). The GI50 (ACHN) was > 100 µM (inactive), the GI50 (CAKI-1) was > 100 µM (inactive) and the GI50 (CCRF-CEM) was > 100 µM (inactive). The GI50 (COLO 205) was > 100 µM (inactive), the GI50 (DLD-1) was > 100 µM (inactive) and the GI50 (DMS-114) was > 100 µM (inactive). The GI50 (EKVX) was > 100 µM (inactive), the GI50 (HCC 2998) was > 100 µM (inactive) and the GI50 (HCT-116) was > 100 µM (inactive). For the same compound, the GI50 (HCT-15) was greater than 100 µM, the GI50 (HL-60) was > 100 µM (inactive) and the GI50 (HOP-18) was > 100 µM (inactive). For the same compound, the GI50 (HOP-62) was > 100 µM (inactive), the GI50 (HOP-92) was 71.6 µM (inactive) and the GI50 (HT-29) was > 100 µM (inactive). For the same compound, the GI50 (IGROV-1) was > 100 µM (inactive), the GI50 (K562) was > 100 µM (inactive) and the GI50 (KM-20L2) was > 100 µM (inactive). For the same compound, the GI50 (KM12) was > 100 µM (inactive), the GI50 (LOX IMVI) was > 100 µM (inactive) and the GI50 (LXFL 529) was > 100 µM (inactive). For the same compound, the GI50 (M14) was > 100 µM (inactive), the GI50 (M19-MEL) was > 100 µM (inactive) and the GI50 (MOLT-4) was > 100 µM (inactive). For the same compound, the GI50 (Malme-3M) was > 100 µM (inactive), the GI50 (NCI-H226) was > 100 µM (inactive) and the GI50 (NCI-H23) was > 100 µM (inactive). The GI50 (NCI-H460) was > 100 µM (inactive), the GI50 (OVCAR-3) was > 100 µM (inactive) and the GI50 (OVCAR-4) was > 100 µM (inactive). The GI50 (OVCAR-5) was > 100 µM (inactive), the GI50 (OVCAR-8) was > 100 µM (inactive) and the GI50 (RPMI-8226) was > 100 µM (inactive). The GI50 (RXF 393) was > 100 µM (inactive), the GI50 (RXF 631) was > 100 µM (inactive) and the GI50 (SF-295) was > 100 µM (inactive). For the same compound, the GI50 (SF-539) was > 100 µM (inactive), the GI50 (SK-MEL-2) was > 100 µM (inactive) and the GI50 (SK-MEL-5) was > 100 µM (inactive). The GI50 (SK-OV-3) was > 100 µM (inactive), the GI50 (SN12C) was > 100 µM (inactive) and the GI50 (SNB-19) was > 100 µM (inactive). The GI50 (SNB-75) was > 100 µM (inactive), the GI50 (SNB-78) was > 100 µM (inactive) and the GI50 (SW-620) was > 100 µM (inactive). For the same compound, the GI50 (TK-10) was > 100 µM (inactive), the GI50 (U-251) was > 100 µM (inactive) and the GI50 (UACC-257) was > 100 µM (inactive). The GI50 (UACC-62) was > 100 µM (inactive), the GI50 (UO-31) was > 100 µM (inactive) and the GI50 (XF498) was > 100 µM (inactive).

`CC(C)C1COC(c2ccc3ccccc3c2-c2c(O[Si](C)(C)C(C)(C)C)ccc3ccccc23)=N1` (centres undefined) was tested, and the GI50 (786-0) was 18.4 µM (inactive), the GI50 (A498) was 19.2 µM (inactive) and the GI50 (A549) was 17.4 µM (inactive). For the same compound, the GI50 (ACHN) was 18.9 µM (inactive), the GI50 (CAKI-1) was 21.9 µM (inactive) and the GI50 (CCRF-CEM) was 18.1 µM (inactive). The GI50 (COLO 205) was 18.4 µM (inactive), the GI50 (DLD-1) was 17.1 µM (inactive) and the GI50 (DMS-114) was 15.6 µM (inactive). The GI50 (DMS-273) was 21.4 µM (inactive), the GI50 (EKVX) was 19.1 µM (inactive) and the GI50 (HCC 2998) was 15.1 µM (inactive). For the same compound, the GI50 (HCT-15) was 22.3 µM, the GI50 (HL-60) was 16.1 µM (inactive) and the GI50 (HOP-62) was 18.8 µM (inactive). The GI50 (HOP-92) was 13.6 µM (inactive), the GI50 (HT-29) was 15.5 µM (inactive) and the GI50 (IGROV-1) was 20.2 µM (inactive). For the same compound, the GI50 (K562) was 16.6 µM (inactive), the GI50 (KM-20L2) was 19.5 µM (inactive) and the GI50 (KM12) was 17.9 µM (inactive). The GI50 (LOX IMVI) was 19.7 µM (inactive), the GI50 (LXFL 529) was 15.4 µM (inactive) and the GI50 (M14) was 15.8 µM (inactive). For the same compound, the GI50 (M19-MEL) was 18.8 µM (inactive), the GI50 (MOLT-4) was 15.6 µM (inactive) and the GI50 (Malme-3M) was 18.4 µM (inactive). The GI50 (NCI-H226) was 11.8 µM (inactive), the GI50 (NCI-H23) was 16.3 µM (inactive) and the GI50 (NCI-H460) was 19.6 µM (inactive). For the same compound, the GI50 (NCI-H522) was 15.2 µM (inactive), the GI50 (OVCAR-3) was 17.3 µM (inactive) and the GI50 (OVCAR-4) was 14.6 µM (inactive). For the same compound, the GI50 (OVCAR-5) was 18.4 µM (inactive), the GI50 (OVCAR-8) was 18 µM (inactive) and the GI50 (RPMI-8226) was 14.7 µM (inactive). For the same compound, the GI50 (RXF 393) was 18.8 µM (inactive), the GI50 (RXF 631) was 14.9 µM (inactive) and the GI50 (SF-268) was 17.9 µM (inactive). The GI50 (SF-295) was 17.2 µM (inactive), the GI50 (SF-539) was 16.9 µM (inactive) and the GI50 (SK-MEL-28) was 19.1 µM (inactive). The GI50 (SK-MEL-2) was 16.1 µM (inactive), the GI50 (SK-MEL-5) was 16.7 µM (inactive) and the GI50 (SK-OV-3) was 19.8 µM (inactive). The GI50 (SN12C) was 16.6 µM (inactive), the GI50 (SNB-19) was 14.9 µM (inactive) and the GI50 (SNB-75) was 17.9 µM (inactive). The GI50 (SNB-78) was 6.59 µM (inactive), the GI50 (SW-620) was 18.5 µM (inactive) and the GI50 (TK-10) was 17.9 µM (inactive). The GI50 (UACC-257) was 18.2 µM (inactive), the GI50 (UACC-62) was 15.8 µM (inactive) and the GI50 (UO-31) was 14.8 µM (inactive). The GI50 (XF498) was 14.5 µM (inactive).
